ChEMBL document CHEMBL1152471 (2008)
≈ marks a conversion by molar mass, not a printed value.

How the values were obtained:
Type in all cases: functional
[1] = test system: Mycobacterium tuberculosis; assay: Antituberculosis activity against linezolid-resistant Mycobacterium tuberculosis without mutation in 23S rRNA
[2] = test system: Mycobacterium tuberculosis; assay: Antituberculosis activity against linezolid-resistant Mycobacterium tuberculosis having mutation in 23S rRNA with identical G to T base pair exchange at position 2061
[3] = test system: Mycobacterium tuberculosis; assay: Antituberculosis activity against linezolid-resistant Mycobacterium tuberculosis having mutation in 23S rRNA with G to T base pair exchange at position 2576
[4] = test system: Mycobacterium tuberculosis; assay: Antituberculosis activity against linezolid-resistant Mycobacterium tuberculosis by bactec MGIT 960 method
[5] = test system: Mycobacterium tuberculosis; assay: Antituberculosis activity against linezolid-resistant Mycobacterium tuberculosis having mutation in 23S rRNA with alteration in domain V
[6] = test system: Mycobacterium tuberculosis; assay: Antituberculosis activity against linezolid-resistant Mycobacterium tuberculosis by bactec 460 TB method

CC(=O)NC[C@H]1CN(c2ccc(N3CCOCC3)c(F)c2)C(=O)O1 [LINEZOLID]
MIC [1]: 4 µg/mL (≈ 11.9 µM)
MIC [2]: 32 µg/mL (≈ 94.9 µM)
MIC [3]: 16 µg/mL (≈ 47.4 µM)
MIC [4]: ≤ 1 µg/mL
MIC [5]: >=64 ug ml-1
MIC [6]: ≤ 1 µg/mL
